Results taken from US20070009544A1, “Anti-allergic complex molecules” (priority 1999, published 2007).
Values after ≈ are worked out from the molar mass of the structure shown. Numbered stars: 1 amine (or outer) side, 2 acyl side, 3 side chain; on linkers, the order of the positions; unused ones are H or OH. Square brackets hold non-standard residues; d marks the D form. Peptide text beside a SMILES is read from it. Phe(4-NH2) = Nc1ccc(C[C@H](N)C(=O)O)cc1; Suc = O=C(CCC(=O)[*:2])[*:1]

What was measured:
[1] = system: abdominal skin of C.R rats; assay: Rat skin test: intradermal injection of peptide, then intradermal compound 48/80 or vehicle, wheal area; type: in vivo; details: for Mean wheal size, compound 48/80-induced cutaneous reaction: Fenistil Gel 100 mg t.a., Cromoglycate 20 mg/ml i.d., Peptide 2 10 mg/ml i.d.; for Mean Wheal Area ± STD, Compound 48/80: 0.5 hour before allergic induction; for Mean Wheal Area ± STD, Vehicle: 0.5 hour before, vehicle instead of compound 48/80
Method: The hair of the abdominal area of C.R rats was carefully removed with an electric clipper and a depilatory cream. In each animal the abdominal area was divided to six equal zones that were marked by pen. Each zone was either subjected to peptide treatment or served as a control. In the first set of experiments, the peptide was topically applied as follows: 36 μl of peptide solution at the indicated concentration (dissolved in 72% DMSO in saline) was applied on desired abdominal area. In the second set of experiments, the peptide was injected intradermally as follows: 20 μl of peptide solution at different concentrations (dissolved in 10% DMSO in saline) was injected intradermally to an indicated abdominal area using a 27-gauge sterile needle.
Skin tests were performed 0.5, 1 or 2 hours following application of the peptide. Skin tests were performed by injecting intradermally 20 μl of the allergen (0.1 mg/ml compound 48/80 dissolved in saline) or saline alone, into the center of each marked area on the abdominal skin using a 27-gauge sterile needle. The allergic response was monitored by outlining with a marker the wheals which developed in response to allergen or saline treatment.
To quantitate the skin test results, the marker signs were transferred onto paper with scotch tape. The areas of the wheals were outlined and calculated by a computerized planimeter (Hewlett-Packard), as previously described (Sussman et al., 1982).
Tables 10-16 presents the mean areas of the wheals, which developed in response to intradermal injection of each of the tested peptides, followed by either compound 48/80 or DDW injection applied after 0.5 or 1 hour. Two doses were tested for each peptide-20 and 200 μg (injection of 20 μl from a stock solution of 1 mg/ml or 10 mg/m respectively).
Skin tests on rats using compound 48/80 as the allergen assessed the ability of the peptides of the present invention to block allergic cutaneous reactions. The abdominal skin of the rats was subjected to peptide (indicated concentrations are listed in Tables 17A-17B below) or vehicle treatment (intradermal injection); the allergic response was induced by intradermal injection of compound 48/80 at various times; and the allergic response was quantified by calculating the area of the resultant allergic wheals.

mice = assay: IgE-independent mouse conjunctivitis induced by compound 48/80, clinical score; type: in vivo; set-up: scale not given here; details: for Average Score, Chemosis: drug 24, 21, 18 hrs and 30 min before compound 48/80, Cromoglycate 2%, Dexamethazone 0.1%, Peptide 2 2%, no treatment 2.0; for Average Score, Erythema / Average Score, Tearing / Average Score, Lid edema / Average Score, Total score: drug before compound 48/80; for Average Score, Erythema: no treatment 0.8; for Average Score, Tearing: no treatment 2.3; for Average Score, Lid edema: no treatment 2.5; for Average Score, Total score: no treatment 7.6
Method: A murine model was chosen as an in vivo model of IgE-independent human conjunctivitis, induced by a basic secretagogue.
Six groups of mice were topically treated as described in Table 19. The first application was installed 4 times (24 hours, 21 hours, 18 hours and 30 minutes) prior to the second application.
Clinical evaluation of allergic conjunctivitis was conducted in a blind fashion by determining the extent and intensity of lid edema, chemosis, erythema and tearing.

[2] = system: purified rat peritoneal mast cells; type: cell-based; details: for maximal inhibition of compound 48/80 induced histamine secretion: 600 μg/ml peptide, compound 48/80 concentration not given; for Inhibitor (extent of inhibition of histamine secretion from mast cells): Table 9, incubation with different concentrations of each peptide, then induction of the allergic reaction
Method: 37° C. […] Each data point represents the average of duplicate measurements. The spontaneously released histamine was subtracted.
First, the effect of compound 48/80 on exocytosis from intact mast cells was determined. […] Histamine release was determined and is presented as the net secretion that is % of the total cellular histamine following subtraction of the spontaneously released histamine. Half-maximal release was obtained at 0.1 μg/ml while maximal release was obtained at 1-10 μg/ml. Accordingly, in order to analyze the potential of each peptide to block histamine secretion, histamine secretion was induced with 5 μg/ml compound 48/80, a concentration that induces a maximal histamine release, while the cells were incubated in the presence of increasing concentrations of each peptide.
In order to investigate the ability of these peptides to block allergen-induced exocytosis, the peptides were examined for their ability to block compound 48/80 induced histamine secretion from intact mast cells in vitro. Mast cells were incubated with different concentrations of each peptide, followed by induction of histamine secretion by compound 48/80.

[3] = system: purified rat peritoneal mast cells; assay: Histamine secretion from intact mast cells incubated with peptide alone (secretagogue side effect); details: for Secretagogue (histamine secretion following incubation of mast cell with different concentrations of each peptide): Table 9, no allergen; for histamine secretion from mast cells on incubation with increasing concentrations of peptide alone: no additional allergen
[4] = intradermal peptide 0.5 hour before allergic induction

Row | IC50, compound 48/80 induced histamine secretion [2] [µg/mL] | Mean Wheal Area ± STD, Vehicle ([1]; intradermal peptide 1 mg/ml) | Mean Wheal Area ± STD, Vehicle ([1]; intradermal peptide 10 mg/ml) | Structure (SMILES) | Mean wheal size, compound 48/80-induced cutaneous reaction ([1]; 0.5 hour incubation, Ceterizine 0.01 mg/ml i.d., no treatment 115.5 ± 30.4) [mm^2] | Mean wheal size, compound 48/80-induced cutaneous reaction ([1]; 1 hour incubation, no treatment 123.3 ± 33.9) [mm^2] | Average Score, Chemosis (mice) | Average Score, Erythema (mice) | Average Score, Tearing (mice) | Average Score, Lid edema (mice) | Average Score, Total score (mice) | maximal inhibition of compound 48/80 induced histamine secretion [2] [%] | Inhibitor (extent of inhibition of histamine secretion from mast cells) [2] | block of compound 48/80 induced allergic reaction in vivo, rat skin ([1]; intradermal peptide) | Mean Wheal Area ± STD, Compound 48/80 ([1]; intradermal peptide 1 mg/ml) | Mean Wheal Area ± STD, Compound 48/80 ([1]; intradermal peptide 10 mg/ml) | reduction of compound 48/80 induced allergic reaction [1, 4] | reduction of compound 48/80 induced allergic reaction ([1]; intradermal peptide, lower dose or 1 hour before allergic induction) | Secretagogue (histamine secretion following incubation of mast cell with different concentrations of each peptide) ([3]; peptide alone) | histamine secretion from mast cells on incubation with increasing concentrations of peptide alone [3] | basal level of histamine secretion compared to control cells ([3]; peptide alone, increasing concentrations)
1 |  |  |  | O=C(O)c1cc(=O)c2c(OCC(O)COc3cccc4oc(C(=O)O)cc(=O)c34)cccc2o1 [Cromoglycate] | 76.2 ± 17.5 | 91.5 ± 12.6 | 0.5 | 0.5 | 1.9 | 1.1 | 4.0 |  |  |  |  |  |  |  |  |  | 
2 | 230 (≈ 82.8 µM) | 87.2 ± 1.9 (n = 2) mm^2 | 100.1 ± 38.9 (n = 2) mm^2 | CC(C)C[C@H](NC(=O)CNC(=O)[C@H](CS)NC(=O)[C@H](CCC(=O)O)NC(=O)[C@H](CCCCN)NC(=O)[C@H](CC(C)C)NC(=O)[C@H](CC(N)=O)NC(=O)[C@H](CC(N)=O)NC(=O)[C@H](CCCCN)NC(=O)[C@@H]1CCCN1C(=O)[C@H](C)NC(=O)[C@H](CC(C)C)NC(=O)[C@H](CC(C)C)NC(=O)[C@H](C)NC(=O)[C@H](CC(C)C)NC(=O)[C@H](CC(C)C)NC(=O)[C@@H](NC(=O)[C@H](C)NC(=O)[C@@H]1CCCN1C(=O)[C@H](CC(C)C)NC(=O)[C@H](CC(C)C)NC(=O)[C@H](C)NC(=O)[C@@H](NC(=O)[C@H](C)NC(=O)[C@H](C)NC(=O)CCC(=O)O)C(C)C)C(C)C)C(=O)N[C@@H](Cc1ccc(N)cc1)C(=O)O [WALL014] (Suc-AAVALLPAVLLALLAPKNNLKECGL[Phe(4-NH2)]-OH; C-terminus assumed) |  |  |  |  |  |  |  | 83 | +++ (+++ Potent inhibitor (≧80% inhibition)) | effectively block the allergic response in vivo | 108.1 ± 15.0 (n = 2) mm^2 | 91.5 ± 34.9 (n = 2) mm^2 | significantly reduced | no significant inhibition | − | did not result in histamine secretion | 
3 |  |  |  | C[C@@H]1C[C@H]2[C@@H]3CCC4=CC(=O)C=C[C@]4(C)[C@@]3(F)[C@@H](O)C[C@]2(C)[C@@]1(O)C(=O)CO [Dexamethazone] |  |  | 0 | 0.6 | 1.0 | 0 | 1.6 |  |  |  |  |  |  |  |  |  | 
4 | 245 (≈ 89.5 µM) | 74.7 ± 12.0 (n = 4) mm^2 | 77.3 ± 13.5 (n = 4) mm^2 | CC(C)C[C@H](NC(=O)CNC(=O)[C@H](CS)NC(=O)[C@H](CCC(=O)O)NC(=O)[C@H](CCCCN)NC(=O)[C@H](CC(C)C)NC(=O)[C@H](CC(N)=O)NC(=O)[C@H](C)NC(=O)[C@H](CCCCN)NC(=O)[C@@H]1CCCN1C(=O)[C@H](C)NC(=O)[C@H](CC(C)C)NC(=O)[C@H](CC(C)C)NC(=O)[C@H](C)NC(=O)[C@H](CC(C)C)NC(=O)[C@H](CC(C)C)NC(=O)[C@@H](NC(=O)[C@H](C)NC(=O)[C@@H]1CCCN1C(=O)[C@H](CC(C)C)NC(=O)[C@H](CC(C)C)NC(=O)[C@H](C)NC(=O)[C@@H](NC(=O)[C@H](C)NC(=O)[C@H](C)NC(=O)CCC(=O)O)C(C)C)C(C)C)C(=O)N[C@@H](Cc1ccc(O)cc1)C(=O)O [WALL013] (Suc-AAVALLPAVLLALLAPKANLKECGLY-OH; C-terminus assumed) |  |  |  |  |  |  |  | 100 | +++ (+++ Potent inhibitor (≧80% inhibition)) | effectively block the allergic response in vivo | 89.7 ± 13.7 (n = 4)** mm^2 | 96.4 ± 28.4 (n = 4)* mm^2 | significantly reduced |  | − | did not result in histamine secretion | minor inhibition of the basal level of histamine secretion
